In BindingDB's records for PubMed 9694973 (Alcon Laboratories, 1998) one finds Ki data, which are given here for 25 molecules.

The target of experiment [1] is T1, Prostaglandin E2 receptor EP3 subtype (Bos taurus, UniProt P34979).
T1 sequence (P34979 whole entry): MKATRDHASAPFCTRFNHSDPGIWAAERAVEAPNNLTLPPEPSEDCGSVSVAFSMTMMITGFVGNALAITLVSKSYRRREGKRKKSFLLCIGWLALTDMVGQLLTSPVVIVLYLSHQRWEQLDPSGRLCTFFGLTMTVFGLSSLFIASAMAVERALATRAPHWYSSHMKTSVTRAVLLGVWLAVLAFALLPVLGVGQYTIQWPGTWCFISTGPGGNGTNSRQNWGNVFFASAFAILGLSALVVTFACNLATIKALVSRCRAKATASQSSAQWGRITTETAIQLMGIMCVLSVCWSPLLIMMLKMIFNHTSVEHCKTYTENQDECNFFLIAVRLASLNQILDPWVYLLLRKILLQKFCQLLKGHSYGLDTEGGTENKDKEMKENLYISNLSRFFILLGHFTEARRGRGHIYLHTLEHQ

For experiment [2], the target named is Prostaglandin F2-alpha receptor (Bos taurus, UniProt P37289).
Sequence of Prostaglandin F2-alpha receptor (P37289 whole entry): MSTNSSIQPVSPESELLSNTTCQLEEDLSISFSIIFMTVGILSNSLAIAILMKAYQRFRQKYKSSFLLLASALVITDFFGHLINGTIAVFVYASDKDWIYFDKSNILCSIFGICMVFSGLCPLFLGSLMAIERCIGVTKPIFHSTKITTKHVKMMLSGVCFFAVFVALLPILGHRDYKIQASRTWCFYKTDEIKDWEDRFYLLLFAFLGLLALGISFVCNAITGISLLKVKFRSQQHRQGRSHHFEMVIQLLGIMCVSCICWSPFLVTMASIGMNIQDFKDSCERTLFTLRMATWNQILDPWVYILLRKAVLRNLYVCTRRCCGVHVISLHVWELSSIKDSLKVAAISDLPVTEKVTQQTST

“And” between values parts separate entries of the source, which are not always exact repeats. Equal entries are not always repeated.

For the molecule `CC#CCC(C)[C@H](O)/C=C/[C@@H]1[C@H]2C/C(=C/CCCC(=O)O)C[C@H]2C[C@H]1O` (some centres not stated), the Ki (commonly a dissociation constant, usually derived from enzyme kinetics or from competition with a known ligand) in experiment [1] was 265 nM.
With `CCCCC[C@@H](O)/C=C/[C@H]1[C@H](O)CC(=O)[C@@H]1CCCCCCC(=O)O`, the Ki is 2 nM and 4 nM in experiment [1]; above 10000 nM in experiment [2].
Take `CCCCC[C@H](O)/C=C/[C@@H]1[C@H]2C/C(=C\CCCC(=O)O)C[C@H]2C[C@H]1O`: the Ki in experiment [1] was 4860 nM and 5370 nM; in experiment [2], above 10000 nM.
Regarding `O=C(O)CCC/C=C\C[C@H]1C(=O)C[C@@H](O)[C@@H]1/C=C/[C@@H](O)CCc1ccccc1` [17-PHENYL TRINOR PROSTAGLANDIN E2], the inhibitory constant (Ki) in experiment [1] is 16 nM and 7 nM; in experiment [2], 1410 nM.
Consider `CCCCC[C@H](O)/C=C/C1[C@H](O)C[C@H](O)[C@@H]1C/C=C\CCCC(=O)O` (stereo partly drawn) [(Z)-7-[(1R,3R,5S)-3,5-Dihydroxy-2-((E)-(S)-3-hydroxy-oct-1-enyl)-cyclopentyl]-hept-5-enoic acid], for which the Ki in experiment [1] was 37 nM and 24 nM.
Still for that read-out and setting: as for `CCCC1([C@@H](O)C/C=C/C2[C@H](O)CC(=O)[C@@H]2CCCCCCC(=O)OC)CCC1` (some centres not stated) [Butaprost (Methyl Ester)], the figure is above 10000 nM.
As for `O=C(O)CCCC=CCC1C(O)CC(O)C1C=CC(O)COc1cccc(C(F)(F)F)c1` (configuration not stated) [CAS_40666-16-8], the Ki is 3170 nM and 3500 nM in experiment [1]; 100 nM in experiment [2].
Take `CCCCCC(O)CC=C1C(=O)C=CC1CC=CCCCC(=O)O` (configuration not stated) [CAS_41598-07-6]: the Ki in experiment [1] is 1580 nM and 1110 nM; in experiment [2], 2500 nM.
For `CS(=O)(=O)NC(=O)CCCC=CCC1C(=O)CC(O)C1C=CC(O)COc1ccccc1` (configuration not stated) [CAS_60325-46-4], the Ki in experiment [1] was 21 nM and 11 nM; in experiment [2] it was 2500 nM.
As to `O=C(O)CCCCCCc1c(O)n(Cc2ccccc2)c(=O)n1NCC(O)C1CCCCC1` (configuration not stated) [CAS_122021], the Ki in experiment [1] and in experiment [2] was above 10000 nM in each case.
On to `CC(C)OC(=O)CCC/C=C\C[C@@H]1[C@@H](/C=C/[C@@H](O)CCc2ccccc2)[C@H](O)C[C@@H]1O` [CAS_130209-76-6], for which the Ki turned out to be 388 nM in experiment [1] and 59 nM in experiment [2].
`COC(=O)CCC=CCCC1C(=O)CC(O)C1C=CCC(C)(O)C=CC1=CCCC1` (configuration not stated) [CAS_132045] yielded a Ki in experiment [1] of 29 nM.
Take `CCCCCCCC(=O)CCC1C(O)CC(O)C1CC=CCCCC(=O)OC(C)C` (configuration not stated) [CAS_151671]: the values for the Ki in experiment [1] and in experiment [2] were above 10000 nM and 5900 nM, respectively.
With `CC(=O)NNC(=O)N1Cc2ccccc2Oc2ccc(Cl)cc21` [CAS_4336830], the Ki in experiment [1] was 3000 nM and > 10000 nM.
For `CC1CCCCC1C(O)C=CC1C(O)CC(Cl)C1CC=CCOCC(=O)O` (configuration not stated) [CAS_5311208], the Ki in experiment [1] is 8740 nM; in experiment [2], above 10000 nM.
Take `O=C(O)CCC/C=C\C[C@@H]1[C@@H](/C=C/[C@@H](O)COc2cccc(Cl)c2)[C@H](O)C[C@@H]1O` [CLOPROSTENOL]: the Ki in experiment [1] is 90 nM and 91 nM.
Consider `CCCCC[C@H](O)/C=C/[C@H]1[C@H](O)CC(=O)[C@@H]1C/C=C\CCCC(=O)O` [DINOPROSTONE], for which the Ki was 4 nM and 3 nM in experiment [1]; 3400 nM in experiment [2].
For `CC(C)OC(=O)CCC/C=C/C[C@@H]1[C@@H](CC[C@@H](O)CCc2ccccc2)[C@H](O)C[C@@H]1O` [LATANOPROST (PHXA41)], the Ki is above 10000 nM in experiment [1] and 4200 nM in experiment [2].
Consider `CCCCC(C)(O)CC=CC1C(O)CC(=O)C1CCCCCCC(=O)OC` (configuration not stated) [MISOPROSTOL (Methyl Ester)], for which the Ki in experiment [1] was 25 nM and 54 nM.
`O=NN1CSCSC1` [NSC_130741]: the Ki in experiment [1] and in experiment [2] was above 10000 nM throughout.
In the case of `O=C(O)CCCC=CC[C@@H]1[C@@H](CC[C@@H](O)CCc2ccccc2)[C@H](O)C[C@@H]1O` [NSC_170548], the Ki in experiment [1] was > 10000 nM and 7940 nM; in experiment [2], 98 nM.
Take `COC(=O)CCC=C=CCC1C(=O)CC(O)C1C=CC(O)COc1ccccc1` (configuration not stated) [NSC_5282207]: the Ki was 12 nM and 25 nM in experiment [1]; 1000 nM in experiment [2].
`O=C(CCC=CCCC1C(=O)CC(O)C1OCC(O)COc1ccccc1)Oc1ccc(NC(=O)c2ccccc2)cc1` (configuration not stated) [NSC_5311224]: the Ki in experiment [1] was 8 nM and 11 nM; in experiment [2], above 10000 nM.
`O=C(O)CCC/C=C\C[C@@H]1[C@@H](/C=C/[C@@H](O)COc2ccccc2)[C@H](O)C[C@@H]1O` [PGF2Alpha,16-Phenoxy]: the Ki in experiment [2] was determined as 22 nM. This counts as double-digit nanomolar.
Take `CCCCC[C@H](O)/C=C/C1[C@@H](C/C=C\CCCC(=O)O)[C@H]2CO[C@@H]1C2` (some centres not stated) [U46619]: the inhibition constant Ki is above 10000 nM in experiment [1] and 8900 nM in experiment [2].
